# Test results reported in paper PMC7265341, “Quantifying CDK inhibitor selectivity in live cells” (Nature Communications, 2020).
# Values joined by “and” are separate entries in the source; they are usually repeats but may differ in a detail not shown here. Identical values can stand only once. Like-named read-outs stand apart in the source and are kept apart here.
# Experiments:
# [1] = target: T1, CDK11A/Cyclin L2 (Homo sapiens, UniProt Q9UQ88); test: NanoBRET live-cell target engagement, CDK11A-NanoLuc/Cyclin L2 in HEK-293; format: binding
# T1 sequence (Q9UQ88 1-783): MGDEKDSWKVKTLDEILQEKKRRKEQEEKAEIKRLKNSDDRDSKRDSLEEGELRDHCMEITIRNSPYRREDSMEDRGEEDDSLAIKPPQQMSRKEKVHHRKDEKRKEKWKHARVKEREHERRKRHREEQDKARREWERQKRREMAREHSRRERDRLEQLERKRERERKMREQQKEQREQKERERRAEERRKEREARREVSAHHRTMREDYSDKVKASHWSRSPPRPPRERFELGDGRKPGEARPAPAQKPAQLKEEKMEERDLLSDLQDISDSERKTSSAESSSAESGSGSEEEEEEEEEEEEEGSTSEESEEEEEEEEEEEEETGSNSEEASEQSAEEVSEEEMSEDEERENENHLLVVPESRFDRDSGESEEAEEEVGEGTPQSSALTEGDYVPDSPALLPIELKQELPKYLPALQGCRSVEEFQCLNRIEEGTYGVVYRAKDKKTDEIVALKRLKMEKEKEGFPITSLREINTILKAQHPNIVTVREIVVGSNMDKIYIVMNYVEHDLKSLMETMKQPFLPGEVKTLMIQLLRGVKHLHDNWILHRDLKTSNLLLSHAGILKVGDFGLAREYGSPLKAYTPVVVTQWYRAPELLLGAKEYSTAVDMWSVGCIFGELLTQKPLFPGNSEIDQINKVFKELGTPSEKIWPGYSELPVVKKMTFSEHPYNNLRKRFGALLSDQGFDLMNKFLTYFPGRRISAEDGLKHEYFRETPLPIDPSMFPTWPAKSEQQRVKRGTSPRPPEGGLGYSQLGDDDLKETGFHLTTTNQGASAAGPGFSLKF
# [2] = system: phospho-Rb (Ser 807/811); test: Endogenous phospho-Rb (Ser 807/811) Lumit immunoassay in MCF7 cells; format: cell-based, human; details: for Normalized pRB (%): Panel E;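 for all read-outs here: Serum-starved cells exposed to compounds for 24 h with 25 ng/mL hEGF, then lysed, phospho-Rb detected by split-luciferase antibody pair luminescence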
# [3] = CDK11a/L2, average, read-out: Inhibition at 10µM (%)
# [4] = CDK11a/L2, experiment 1, read-out: Inhibition at 10µM (%)
# [5] = CDK11a/L2, experiment 2, read-out: Inhibition at 10µM (%)
# [6] = 10µM, average of experiments, read-out: CDK11a/L2 Inhibition at 10µM (%)
# [7] = 10µM, independent experiment 1, read-out: CDK11a/L2 Inhibition at 10µM (%)
# [8] = 10µM, independent experiment 2, read-out: CDK11a/L2 Inhibition at 10µM (%)
# [9] = independent experiment 1, read-out: CDK11a/L2 IC50
# [10] = independent experiment 2, read-out: CDK11a/L2 IC50
# [11] = CDK11a/L2, 10µM, average of replicates
# [12] = CDK11a/L2, 10µM, average of replicates, read-out: Inhibition at 10µM (%) Average
# [13] = CDK11a/L2, 10µM, read-out: Inhibition at 10µM (%) Replicate 1
# [14] = CDK11a/L2, 10µM, read-out: Inhibition at 10µM (%) Replicate 2
# [15] = CDK11a/L2, average (± SEM where n=3), read-out: IC50
# [16] = CDK11a/L2, experiment 1, read-out: IC50
# [17] = CDK11a/L2, experiment 2, read-out: IC50
smiles,measurement,setting,value
CNC(=O)c1nn(C)c2c1C(C)(C)Cc1cnc(Nc3ccc(N4CCN(C)CC4)cc3)nc1-2 [Milciclib],inhibition at 10 µM,[1]; [3],22.7%
same,inhibition at 10 µM,[1]; [4],20.3%
same,inhibition at 10 µM,[1]; [5],25%
CN1C/C=C/CCOc2cccc(c2)-c2ccnc(n2)Nc2cccc(c2)C1 [SB1317],inhibition at 10 µM,[1]; [6],95.6%
same,inhibition at 10 µM,[1]; [7],93.3%
same,inhibition at 10 µM,[1]; [8],97.9%
same,IC50,"[1]; average (± SEM where n=3), read-out: CDK11a/L2 IC50",190 nM
same,IC50,[1]; [9],200 nM
same,IC50,[1]; [10],180 nM
CN1CCC(c2c(O)cc(O)c3c(=O)cc(-c4ccccc4Cl)oc23)C1CO (stereo not shown) [P276-00],Inhibition at 10µM (%),"[1]; CDK11a/L2, average",34.1%
same,Inhibition at 10µM (%),"[1]; CDK11a/L2, experiment 1",43.4%
same,Inhibition at 10µM (%),"[1]; CDK11a/L2, experiment 2",24.8%
CC(C)CC(=O)Nc1[nH]nc2c1CN(C(=O)C1CCN(C)CC1)C2(C)C [PHA-793887],inhibition at 10 µM,[1]; [6],50.1%
same,inhibition at 10 µM,[1]; [7],50.7%
same,inhibition at 10 µM,[1]; [8],49.4%
CC(C)c1cnn2c(NCc3ccccc3)cc(NC[C@H]3CCNC[C@@H]3O)nc12 [CT7001],inhibition at 10 µM,[1]; [3],43.5%
same,inhibition at 10 µM,[1]; [4],43.2%
same,inhibition at 10 µM,[1]; [5],43.8%
N#CCNC(=O)c1ccc(-c2ccnc(Nc3ccc(N4CCOCC4)cc3)n2)cc1 [Momelotinib],inhibition at 10 µM,[1]; [3],26.4%
same,inhibition at 10 µM,[1]; [4],31.7%
same,inhibition at 10 µM,[1]; [5],21.1%
CC(C)c1cnn2c(NCc3ccccc3)cc(N[C@@H](CO)[C@H](O)CO)nc12 [BS-194],Inhibition at 10µM (%) Replicate 1,"[1]; CDK11a/L2, 10µM",16.5%
same,Inhibition at 10µM (%) Replicate 2,"[1]; CDK11a/L2, 10µM",18.5%
same,Inhibition at 10µM (%) Average,[1]; [11],17.5%
Cc1ncc(-c2ccnc(Nc3ccc(S(C)(=O)=O)cc3)n2)n1C(C)C [AZD5438],inhibition at 10 µM,[1]; [12],68.9%
same,inhibition at 10 µM,[1]; [13],67.5%
same,inhibition at 10 µM,[1]; [14],70.3%
CN1CC[C@H](c2c(O)cc(O)c3c(=O)cc(-c4ccccc4Cl)oc23)[C@H](O)C1 [Flavopiridol],inhibition at 10 µM,[1]; [3],27.7%
same,inhibition at 10 µM,[1]; [4],30.2%
same,inhibition at 10 µM,[1]; [5],25.2%
CN(C)C/C=C/C(=O)Nc1ccc(C(=O)Nc2cccc(Nc3ncc(Cl)c(-c4c[nH]c5ccccc45)n3)c2)cc1 [THZ1],CDK11a/L2 Inhibition at 10µM (%),"[1]; 10µM, average of experiments",42.5%
same,CDK11a/L2 Inhibition at 10µM (%),"[1]; 10µM, independent experiment 1",8.0%
same,CDK11a/L2 Inhibition at 10µM (%),"[1]; 10µM, independent experiment 2",77.1%
same,IC50,[1]; [9],450 nM
same,IC50,[1]; [10],230 nM
same,IC50,"[1]; independent experiment 3, read-out: CDK11a/L2 IC50",218 nM
same,IC50,"[1]; live HEK-293, 2 h, mean ± S.E.M. (n=3) or mean (n=2), read-out: IC50 for CDK/cyclin complexes, CDK11a/L2",300 nM
C[C@H]1CC[C@H](n2c3cnccc3c3cnc(Nc4ccc5c(n4)CCN(C(=O)CO)C5)nc32)CC1 [AMG 925],inhibition at 10 µM,"[1]; read-out: Inhibition at 10µM (%) Average, CDK11a/L2, 10µM, average of replicates",6.7%
same,inhibition at 10 µM,"[1]; read-out: Inhibition at 10µM (%) Replicate 1, CDK11a/L2, 10µM",-0.9%
same,inhibition at 10 µM,"[1]; read-out: Inhibition at 10µM (%) Replicate 2, CDK11a/L2, 10µM",14.4%
CN1CCN(Cc2ccc(NC(=O)Nc3ccc(Oc4ccnc(N)n4)cc3)cc2C(F)(F)F)CC1 [K03861],inhibition at 10 µM,[1]; [3],14.5%
same,inhibition at 10 µM,[1]; [4],19.2%
same,inhibition at 10 µM,[1]; [5],9.8%
CNC1CCN(C(=O)c2ccc(Nc3ncc(F)c(-c4cnc(C)n4C(C)C)n3)cc2)C1 (stereo not shown) [AZD5597],Inhibition at 10µM (%) Replicate 1,"[1]; CDK11a/L2, 10µM",89.7%
same,Inhibition at 10µM (%) Replicate 2,"[1]; CDK11a/L2, 10µM",90.1%
same,Inhibition at 10µM (%) Average,[1]; [11],89.9%
CS(=O)(=O)N1CCC(NC(=O)c2[nH]ncc2NC(=O)c2c(Cl)cccc2Cl)CC1 [NVP-LCQ195],Inhibition at 10µM (%),"[1]; CDK11a/L2, average",94.0%
same,IC50,[1]; [15],160 nM
same,Inhibition at 10µM (%),"[1]; CDK11a/L2, experiment 1",93.9%
same,IC50,[1]; [16],225 nM
same,Inhibition at 10µM (%),"[1]; CDK11a/L2, experiment 2",94.1%
same,IC50,[1]; [17],95 nM
CC(C)c1c2cc(-c3ccnc(N[C@H]4CC[C@H](NC5CCOCC5)CC4)n3)ccc2nn1C [LY2857785],Inhibition at 10µM (%),"[1]; CDK11a/L2, average",95.5%
same,IC50,[1]; [15],17 nM
same,Inhibition at 10µM (%),"[1]; CDK11a/L2, experiment 1",95.3%
same,IC50,[1]; [16],10 nM
same,Inhibition at 10µM (%),"[1]; CDK11a/L2, experiment 2",95.7%
same,IC50,[1]; [17],23 nM
CC(C)c1cnn2c(NCc3ccccc3-n3cccn3)nc(OC3CCCNC3)nc12 (stereo not shown) [LDC4297],Inhibition at 10µM (%),"[1]; CDK11a/L2, average",56.5%
same,Inhibition at 10µM (%),"[1]; CDK11a/L2, experiment 1",51.7%
same,Inhibition at 10µM (%),"[1]; CDK11a/L2, experiment 2",61.3%
CC(C)[C@H](CO)Nc1nc(Nc2ccc(C(=O)O)c(Cl)c2)c2ncn(C(C)C)c2n1 [Purvalanol B],inhibition at 10 µM,[1]; [6],-4.5%
same,inhibition at 10 µM,[1]; [7],-2.4%
same,inhibition at 10 µM,[1]; [8],-6.6%
COc1ccc(F)cc1-c1cc(NC(=O)C2CCCNC2)ncc1Cl (stereo not shown) [CDK inhibitor 2],IC50,[1]; [15],20 ± 10 nM
same,inhibition at 10 µM,[1]; [3],95.4%
same,IC50,[1]; [16],8.3 nM
same,inhibition at 10 µM,[1]; [4],94.8%
same,IC50,[1]; [17],17 nM
same,inhibition at 10 µM,[1]; [5],95.9%
same,IC50,"[1]; CDK11a/L2, experiment 3, read-out: IC50",47 nM
CC(C)N1CCN(c2ccc(Nc3ncc4cc5n(c4n3)C3(CCCCC3)CNC5=O)nc2)CC1 [Lerociclib],inhibition at 10 µM,[1]; [3],7.4%
same,inhibition at 10 µM,[1]; [4],2%
same,inhibition at 10 µM,[1]; [5],12.8%
CN1CCN(c2ccc(Nc3ncc4cc(C#N)c(=O)n(C5CCCC5)c4n3)cc2)CC1 [ON123300],inhibition at 10 µM,[1]; [3],12.6%
same,inhibition at 10 µM,[1]; [4],15.7%
same,inhibition at 10 µM,[1]; [5],9.5%
COc1ccccc1-c1cc(Nc2cccc(CS(N)(=O)=O)c2)ncn1 [LDC000067],inhibition at 10 µM,"[1]; read-out: Inhibition at 10µM (%), CDK11a/L2, average",7.5%
same,inhibition at 10 µM,"[1]; read-out: Inhibition at 10µM (%), CDK11a/L2, experiment 1",4.3%
same,inhibition at 10 µM,"[1]; read-out: Inhibition at 10µM (%), CDK11a/L2, experiment 2",10.7%
CCN1CCN(Cc2ccc(Nc3ncc(F)c(-c4cc(F)c5nc(C)n(C(C)C)c5c4)n3)nc2)CC1 [Abemaciclib],IC50,"[2]; Homo sapiens, MCF7 cells, Panel F pIC50 correlations",45.7 nM
same,Normalized pRB (%),[2]; LOG10([Compound]) (LOG10(µM)) 0.0457575,13.6% and 13.3%
same,Normalized pRB (%),[2]; LOG10([Compound]) (LOG10(µM)) 0.522879,24.5% and 23.6% and 23.2%
same,Normalized pRB (%),[2]; LOG10([Compound]) (LOG10(µM)) 1,20.9% and 22.5% and 21.5%
same,Normalized pRB (%),[2]; LOG10([Compound]) (LOG10(µM)) -0.431364,18% and 19.1% and 18.8%
same,Normalized pRB (%),[2]; LOG10([Compound]) (LOG10(µM)) -0.908485,36.6% and 37.6% and 36.8%
same,Normalized pRB (%),[2]; LOG10([Compound]) (LOG10(µM)) -1.38561,61.8% and 62.2% and 61%
same,Normalized pRB (%),[2]; LOG10([Compound]) (LOG10(µM)) -1.86273,80.7% and 77.6% and 81.4%
same,Normalized pRB (%),[2]; LOG10([Compound]) (LOG10(µM)) -2.33985,90.7% and 95% and 86.6%
same,Normalized pRB (%),[2]; LOG10([Compound]) (LOG10(µM)) -2.81697,91.8% and 94.4% and 95%
same,Normalized pRB (%),[2]; LOG10([Compound]) (LOG10(µM)) -3.29409,93.5% and 103% and 101.1%
same,inhibition at 10 µM,[1]; [12],21.8%
same,inhibition at 10 µM,[1]; [13],19.9%
same,inhibition at 10 µM,[1]; [14],23.7%
CCn1cnc2c(Nc3cccc(Cl)c3)nc(N[C@@H]3CCCC[C@@H]3N)nc21 [CGP74514A],Inhibition at 10µM (%),"[1]; CDK11a/L2, average",29.9%
same,Inhibition at 10µM (%),"[1]; CDK11a/L2, experiment 1",16.5%
same,Inhibition at 10µM (%),"[1]; CDK11a/L2, experiment 2",43.3%
